pEC50: −log10 of the molar value.
How the values were obtained:
[1] = molecular target: T1, NURR-1/RXRα (Homo sapiens, UniProt P19793); assay: Transactivation test, NURR-1-Gal4/RXRα, luciferase reporter in Cos-7 cells; assay type: cell-based; settings: for Emax: COS-7, induction level relative to reference XCT0135908 at 2×10^−5 M (=100%), read-out: hNurr1_RXRaFL Emax (%); for pEC50: Cos-7 cells, NURR-1-Gal4/RXRα, luciferase reporter, read-out: hNurr1_RXRaFL EC50
T1 construct: expressed in transfected cells; host or cells: Cos-7 cells

[2] = molecular target: T2, NURR-1/RXRγ (Homo sapiens, UniProt P48443); assay: Transactivation test, NURR-1-Gal4/RXRγ, luciferase reporter in Cos-7 cells; assay type: cell-based; settings: for Emax: COS-7, induction level relative to reference XCT0135908 at 2×10^−5 M (=100%), read-out: hNurr1_RXRgFL Emax (%); for pEC50: Cos-7 cells, NURR-1-Gal4/RXRγ, luciferase reporter, read-out: hNurr1_RXRgFL EC50
T2 construct: expressed in transfected cells; host or cells: Cos-7 cells

[3] = system: dopaminergic neurons of primary culture of rat embryo mesencephalon treated with MPP+; assay: Neuroprotection in primary culture of rat embryo mesencephalon treated with MPP+ (count of tyrosine hydroxylase expressing cells); assay type: cell-based; settings: recombinant human BDNF 10 ng/mL = 100%, 2 days with MPP+
Method: Another in vitro test was carried out with the compounds according to the invention, for the purpose of verifying that the molecules indeed have the expected neuroprotective effect in vitro.
The compounds were tested in a model of primary culture of rat embryo mesencephalon treated with 1-methyl-4-phenylpyridinium (MPP+), which is the active metabolite of 1-methyl-4-phenyl-1,2,3,6-tetrahydropyridine (MPTP). MPP+ enters into dopananergic neurons via the dopamine transporter and causes the death of these dopaminergic neurons. The following protocol was used.
Gestating female rats (15 days of gestation) were euthanized and the rat embryos were removed. The mesencephalons were removed. The tissue was then dissociated mechanically and by using trypsin. The cells collected after centrifugation were distributed into 96-well plates and left to stand for 5 days. The culture conditions made it possible to obtain a cell layer composed of neurons (dopaminergic and others) and astrocytes. On the 6th day, the cells were optionally treated with MPP+ in the presence or absence of test compound. After 2 days of incubation, the cells were fixed and various cell labellings were carried out; staining of the nuclei with the Hoechst fluorescent label and immunolabelling of tyrosine hydroxylase. The cells expressing tyrosine hydroxylase were counted using an image analyzer coupled to an optical microscope.
Recombinant human BDNF trophic factor (10 ng/mL) was used as reference. The activities of the compounds are given as percentages of activity relative to the BDNF reference, the activity of which is arbitrarily defined as being equal to 100%.

[4] = induction level relative to reference XCT0135908 at 2×10^−5 M (=100%)

T2 sequence (P48443 whole entry, the tested form may be a part): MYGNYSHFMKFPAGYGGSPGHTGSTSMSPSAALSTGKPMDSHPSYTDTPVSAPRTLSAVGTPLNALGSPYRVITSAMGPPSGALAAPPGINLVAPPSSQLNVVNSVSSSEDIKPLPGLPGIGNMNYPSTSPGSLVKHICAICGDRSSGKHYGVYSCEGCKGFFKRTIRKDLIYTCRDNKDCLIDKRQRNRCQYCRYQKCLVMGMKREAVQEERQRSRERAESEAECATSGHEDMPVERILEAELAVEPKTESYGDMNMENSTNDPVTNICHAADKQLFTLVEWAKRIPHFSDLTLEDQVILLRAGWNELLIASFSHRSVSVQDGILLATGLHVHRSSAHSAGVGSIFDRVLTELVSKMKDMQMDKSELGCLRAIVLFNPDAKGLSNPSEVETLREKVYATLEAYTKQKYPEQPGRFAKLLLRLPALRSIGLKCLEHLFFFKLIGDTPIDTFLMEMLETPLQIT
T2 sequence (P43354 whole entry partner, the tested form may be a part): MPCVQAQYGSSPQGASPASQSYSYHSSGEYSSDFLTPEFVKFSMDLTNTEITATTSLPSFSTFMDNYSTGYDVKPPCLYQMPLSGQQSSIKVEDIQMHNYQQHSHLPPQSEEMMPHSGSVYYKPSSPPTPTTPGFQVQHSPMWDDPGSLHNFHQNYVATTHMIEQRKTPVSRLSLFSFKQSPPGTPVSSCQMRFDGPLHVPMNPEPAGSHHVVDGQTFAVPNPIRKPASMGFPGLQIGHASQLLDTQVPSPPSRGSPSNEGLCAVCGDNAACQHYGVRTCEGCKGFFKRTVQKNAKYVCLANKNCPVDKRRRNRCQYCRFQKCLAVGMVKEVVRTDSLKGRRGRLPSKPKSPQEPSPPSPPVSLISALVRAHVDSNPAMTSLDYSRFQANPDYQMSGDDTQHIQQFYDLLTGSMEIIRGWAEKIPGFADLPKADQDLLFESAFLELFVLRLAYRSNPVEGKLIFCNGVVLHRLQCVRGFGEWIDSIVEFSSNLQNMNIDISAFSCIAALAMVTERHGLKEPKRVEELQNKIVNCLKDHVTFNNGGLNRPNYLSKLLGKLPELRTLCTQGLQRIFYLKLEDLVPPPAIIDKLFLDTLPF
T2 sequence (P04386 1-147 partner limits assumed): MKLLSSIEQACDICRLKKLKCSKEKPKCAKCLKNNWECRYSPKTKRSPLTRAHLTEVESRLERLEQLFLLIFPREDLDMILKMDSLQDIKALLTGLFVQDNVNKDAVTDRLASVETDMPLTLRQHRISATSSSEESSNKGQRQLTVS
T1 sequence (P19793 whole entry, the tested form may be a part): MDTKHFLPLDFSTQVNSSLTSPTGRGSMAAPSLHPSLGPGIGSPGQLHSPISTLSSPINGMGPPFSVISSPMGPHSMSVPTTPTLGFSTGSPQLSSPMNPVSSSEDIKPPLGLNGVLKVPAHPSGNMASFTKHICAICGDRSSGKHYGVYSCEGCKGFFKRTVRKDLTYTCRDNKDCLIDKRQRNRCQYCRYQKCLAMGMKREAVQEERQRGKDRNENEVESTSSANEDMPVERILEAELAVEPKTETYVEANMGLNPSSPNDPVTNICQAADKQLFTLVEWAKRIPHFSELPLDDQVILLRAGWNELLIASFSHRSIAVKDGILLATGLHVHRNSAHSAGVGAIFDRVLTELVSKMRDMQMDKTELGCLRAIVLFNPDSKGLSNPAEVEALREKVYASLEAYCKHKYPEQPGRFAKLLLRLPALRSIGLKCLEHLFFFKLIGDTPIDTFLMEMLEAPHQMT
T1 sequence (P43354 whole entry partner, the tested form may be a part): as the sequence (P43354 whole entry partner, the tested form may be a part) above
T1 sequence (P04386 1-147 partner limits assumed): as the sequence (P04386 1-147 partner limits assumed) above

SMILES	Emax [1] [%]	pEC50 [1]	Emax [2] [%]	pEC50 [2]	hNurr1_RXRaFL Emax (%) [1, 4] [%]	hNurr1_RXRgFL Emax (%) [2, 4] [%]	melting point [°C]	percentage of activity relative to the BDNF reference ([3]; compound 1 μM) [%]	percentage of activity relative to the BDNF reference ([3]; compound 10 μM) [%]
Cc1cc(-c2cccc(N3CC(C(=O)O)C3)c2)cc(C(F)(F)F)c1 [Example 12, 1-[3-[3-methyl-5-(trifluoromethyl)phenyl]phenyl]azetidine-carboxylic acid]	122	7.34	129	7.32				64	74
CC(Oc1ccc(C(F)(F)F)cc1-c1cccc(N2CC(C(=O)O)C2)c1)c1ccccc1 (centres unmarked) [Example 98, 1-[3-[2-(1-phenylethoxy)-5-(trifluoromethyl)phenyl]phenyl]azetidine-3-carboxylic acid]	51	8.30	42	8.15				86	132
O=C(O)C1CN(c2cccc(-c3cc(C(F)(F)F)ccc3OCC3CCCCC3)c2)C1 [Example 104, 1-[3-[2-(cyclohenxylemthoxy)-5-(trifluoromethyl)phenyl]phenyl]azetidine-3-carboxylic acid]	40	7.30	42	7.37				109	
COc1ccc2c(c1)OC(C)(C)CN2c1cccc(N2CC(C(=O)O)C2)c1 [Example 233, 1-[3-(7-methoxy-2,2-dimethyl-3H-1,4-benzoxazin-4-yl)phenyl]azetidine-3-catboxylic aicd]	97	5.80	52	5.82			54 to 56		
Cc1ccc(N2CC(C(=O)O)C2)cc1-c1cccc(C(C)C)c1 [Example 69, 1-[3-(3-isopripylphenyl)-4-methylphenyl]azetidine-3-carboxylic acid]	63	6.84	57	6.85			71 to 76		
Cc1cc2c(c(-c3cccc(N4CC(C(=O)O)C4)c3)c1)NCC(C)(C)O2 [Example 190, 1-[3-(2,2,7-trimethyl-3,4-dihydro-1,4-benzoxazin-5-yl)phenyl]azetidine-3-carboxylic acid]	110	7.74	109	7.44			82 to 90		
CC1(C)CN(c2cccc(N3CC(C(=O)[O-])C3)c2)c2ncc(C(F)(F)F)cc2O1.[Na+] [Example 241, sodium 1-[3-[2,2-dimethyl-7-(trifluoromethyl)-3H-pyrido[3,2-b][1,4]oxazin-4-yl]phenyl]-azetidine-3-carboxylate]	100	6.96	107	6.71			123 to 139		
CC1(C)Oc2cc(C(C)(C)C)ccc2N(c2cccc(N3CC(C(=O)[O-])C3)c2)C1=O.[Na+] [Example 250, sodium 1-[3-(7-tert-butyl-2,2-dimethyl-3-oxo-1,4-benzoxazin-4-yl)phenyl]azetidine-3-carboxylate]	98	6.54	83	6.54			178 to 198		
CC1Nc2c(cc(C(F)(F)F)cc2-c2cccc(N3CC(C(=O)O)C3)c2)OC1(C)C (centres unmarked) [Example 197, 1-[3-[2,2,3-trimethyl-7-(trifluoromethyl)-3,4-dihydro-1,4-benzoxazin-5-yl]phenyl]azetidine-3-carboxylic acid]	55	7.85	50	7.47			83 to 95		
CC1(C)CNc2c(cc(C3CC3)cc2-c2cccc(N3CC(C(=O)O)C3)c2)O1 [Example 192, 1-[3-(7-cyclopropyl-2,2-dimethyl-3,4-dihydro-1,4-benzoxazin-5-yl)phenyl]azetidine-3-carboxylic acid]	92	7.40	89	6.99			70 to 74		

Further lines, with some results ahead:

Emax [1] [%]	pEC50 [1]	Emax [2] [%]	pEC50 [2]	hNurr1_RXRaFL Emax (%) [1, 4] [%]	hNurr1_RXRgFL Emax (%) [2, 4] [%]	melting point [°C]	SMILES	percentage of activity relative to the BDNF reference ([3]; compound 1 μM) [%]	percentage of activity relative to the BDNF reference ([3]; compound 10 μM) [%]
	8.70		> 9.00	86	99	82 to 94	CC1(C)CCC2C(C1)c1cc(C(F)(F)F)ccc1N2c1cccc(N2CC(C(=O)O)C2)c1 (single isomer, unassigned; isomer 2) [Example 145-2, 1-[3-[3,3-dimethyl-6-(trifluoromethyl)-2,4,4a,9a-teterahydro-1H-carbazol-9-yl]phenyl]azetidine-3-carboxylic acid (isomer 2)]		
77	7.47	83	7.19			150 to 153	O=C(O)C1CN(c2cccc(-n3cc(S(=O)(=O)c4ccccc4)c4cc(C(F)(F)F)ccc43)c2)C1 [Example 135, 1-[3-[3-(benzenesulfonyl)-5-(trifluoromethyl)indol-1-yl]phenyl]azetidine-3-carboxylic acid]		
93	5.99	61	5.70			116 to 121	COCCNCc1cn(-c2cccc(N3CC(C(=O)O)C3)c2)c2ccc(C(F)(F)F)cc12 [Example 133, 1-[3-[3-[(2-methoxyethylamino)methyl]-5-(trifluoromethyl)indol-1-yl]phenyl]azetidine-3-carboxylic acid]		
96	8.00	107	7.77			61 to 65	O=C(O)C1CN(c2cccc(N3c4ccc(C(F)(F)F)cc4C4CCCC43)c2)C1 (centres unmarked) [Example 146, 1-[3-[7-(trifluoromethyl)-2,3,3a,8b-tetrahydro-1H-cyclopenta[b]indol-4-yl]phenyl]azetidine-3-carboxylic acid]		
130	7.96	148	7.66			87 to 91	O=C(O)C1CN(c2cccc(N3C(=O)C4(CCCC4)c4cc(C(F)(F)F)ccc43)c2)C1 [Example 142, 1-[3-[2′-oxo-5′-(trifluoromethyl)spiro[cyclopentane-1,3′-indoline]-1′-yl]phenyl]azetidine-3-carboxylic acid]		
122	7.51	130	7.25			134 to 144	CC(C)Cn1c(=O)n(-c2cccc(N3CC(C(=O)O)C3)c2)c2ccc(C(F)(F)F)cc21 [Example 148]		
105	8.30	110	7.49			66 to 84	CC1(C)Cc2cc(C(F)(F)F)ccc2N(c2cccc(N3CC(C(=O)O)C3)c2)C1 [Example 219, 1-[3-[3,3-dimethyl-6-(trifluoromethyl)-2,4-dihydroquinolin-1-yl]phenyl]azetidine-3-carboxylic acid]		
98	8.40	96	8.22			96 to 100	CC1(C)CCC2C(C1)c1cc(C(F)(F)F)ccc1N2c1cccc(N2CC(C(=O)O)C2)c1 (centres unmarked) [Example 145, 1-[3-[3,3-dimethyl-6-(trifluoromethyl)-2,4,4a,9a-tetrahydro-1H-carbazol-9-yl]phenyl]azetidine-3-carboxylic acid]		
